Measured values reported in patent US9751869B2, “LXR modulators” (BRISTOL-MYERS SQUIBB COMPANY, priority 2013, dated 2017).

Biological target: T1, LXRβ (Homo sapiens, UniProt P55055)
T1 construct: Co-transfection expression plasmids, comprising full-length LXRα (pCMX-h LXRα or LXRβ (pCMX-hLXRβ)); expressed in transfected cells; host or cells: CV-1 African green monkey kidney cells, transient transfection with pCMX-hLXRβ
T1 sequence (P55055 1-460): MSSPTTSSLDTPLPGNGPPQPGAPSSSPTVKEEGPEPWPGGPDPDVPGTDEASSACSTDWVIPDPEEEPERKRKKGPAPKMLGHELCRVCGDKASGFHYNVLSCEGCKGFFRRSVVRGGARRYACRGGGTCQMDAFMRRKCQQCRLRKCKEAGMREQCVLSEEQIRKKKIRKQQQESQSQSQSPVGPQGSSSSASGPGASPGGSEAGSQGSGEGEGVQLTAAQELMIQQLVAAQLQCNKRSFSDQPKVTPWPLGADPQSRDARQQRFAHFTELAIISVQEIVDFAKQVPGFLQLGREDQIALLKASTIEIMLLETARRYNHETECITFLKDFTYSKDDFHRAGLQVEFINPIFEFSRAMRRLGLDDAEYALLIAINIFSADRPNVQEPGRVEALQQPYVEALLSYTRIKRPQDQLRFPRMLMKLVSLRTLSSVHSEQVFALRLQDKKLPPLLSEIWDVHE
T1 sequence (P19793 1-462 partner): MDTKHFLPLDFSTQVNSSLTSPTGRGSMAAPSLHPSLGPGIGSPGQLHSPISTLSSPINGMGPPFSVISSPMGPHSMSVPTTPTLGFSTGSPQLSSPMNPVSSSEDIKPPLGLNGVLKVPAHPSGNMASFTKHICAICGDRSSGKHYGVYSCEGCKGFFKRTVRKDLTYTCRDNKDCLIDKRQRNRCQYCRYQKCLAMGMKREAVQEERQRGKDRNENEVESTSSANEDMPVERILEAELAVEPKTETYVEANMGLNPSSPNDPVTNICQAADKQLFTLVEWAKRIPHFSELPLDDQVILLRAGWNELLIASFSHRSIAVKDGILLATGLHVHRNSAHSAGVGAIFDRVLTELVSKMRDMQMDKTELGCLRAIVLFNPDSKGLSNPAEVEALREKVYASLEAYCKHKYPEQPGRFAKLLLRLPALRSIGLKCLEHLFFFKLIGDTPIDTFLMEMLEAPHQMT
Assay: LXR/LXRE co-transfection assay (luciferase reporter) in CV-1 cells, LXRβ
Type: cell-based
Details: for EC50: CV-1 cells transfected with pCMX-hLXRβ and LXREx1-Tk-Luciferase, 20 hours incubation, read-out: LXRbeta agonism EC50; for Emax: CV-1 cells, relative to maximum response of high control N-(3-((4-fluorophenyl)-(naphthalene-2-sulfonyl)amino)propyl)-2,2-dimethylpropionamide, read-out: LXRbeta % EFFICACY
In short: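 CV-1 cells transiently co-transfected with full-length human LXRβ, LXRE-Tk-luciferase reporter and β-galactosidase control, then exposed to compound (≤0.5% DMSO) for 20 h at 37 °C before luminescence read. EC50 from 10-point, half-log dose curves; efficacy relative to the sulfonamide high control, means of 2–3 experiments.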

## Cc1nc(-c2cc(-c3cc(F)c(CO)c(S(C)(=O)=O)c3)ccc2-n2ccc(C(F)(F)F)n2)c(-c2ccc(Cl)cc2)o1 [Example 400, (3′-(5-(4-chlorophenyl)-2-methyloxazol-4-yl)-3-fluoro-5-(methylsulfonyl)-4′-(3-(trifluoromethyl)-1H-pyrazol-1-yl)biphenyl-4-yl)methanol]
  EC50: 0.038 µM
  Emax: 53%

## Cc1nc(-c2cc(-c3cccc(S(C)(=O)=O)c3)ccc2-n2ccc(C(F)(F)F)n2)c(-c2ccc(Cl)cc2)o1 [Example 401, 5-(4-chlorophenyl)-2-methyl-4-(3′-(methylsulfonyl)-4-(3-(trifluoromethyl)-1H-pyrazol-1-yl)biphenyl-3-yl)oxazole]
  EC50: 0.131 µM
  Emax: 76%

## CS(=O)(=O)c1cc(-c2ccc(-n3ccc(C(F)(F)F)n3)c(-c3nc(C4CC4)oc3-c3ccc(OC(F)(F)F)cc3)c2)cc(F)c1CO [Example 402, (3′-(2-cyclopropyl-5-(4-(trifluoromethoxy)phenyl)oxazol-4-yl)-3-fluoro-5-(methylsulfonyl)-4′-(3-(trifluoromethyl)-1H-pyrazol-1-yl)biphenyl-4-yl)methanol]
  EC50: 0.014 µM
  Emax: 67%

## CS(=O)(=O)c1cccc(-c2ccc(-n3ccc(C(F)(F)F)n3)c(-c3nc(C4CC4)oc3-c3ccc(OC(F)(F)F)cc3)c2)c1 [Example 403, 2-cyclopropyl-4-(3′-(methylsulfonyl)-4-(3-(trifluoromethyl)-1H-pyrazol-1-yl)biphenyl-3-yl)-5-(4-(trifluoromethoxy)phenyl)oxazole]
  EC50: 0.082 µM
  Emax: 62%

## Cc1nc(-c2cc(-c3cccc(C(C)(C)C(N)=O)c3)ccc2-n2nc(C(F)(F)F)cc2Cl)c(-c2ccc(OC(F)(F)F)cc2)o1 [Example 404, 2-(4′-(5-chloro-3-(trifluoromethyl)-1H-pyrazol-1-yl)-3′-(2-methyl-5-(4-(trifluoromethoxy)phenyl)oxazol-4-yl)biphenyl-3-yl)-2-methylpropanamide]
  EC50: 0.185 µM
  Emax: 67%

## Cc1nc(-c2cc(-c3cc(F)c(CO)c(S(C)(=O)=O)c3)ccc2-n2nc(C(F)(F)F)cc2Cl)c(-c2ccc(OC(F)(F)F)cc2)o1 [Example 405, (4′-(5-chloro-3-(trifluoromethyl)-1H-pyrazol-1-yl)-3-fluoro-3′-(2-methyl-5-(4-(trifluoromethoxy)phenyl)oxazol-4-yl)-5-(methylsulfonyl)biphenyl-4-yl)methanol]
  EC50: 0.1 µM
  Emax: 63%

## Cc1nc(-c2cc(-c3cccc(S(C)(=O)=O)c3)ccc2-n2nc(C(F)(F)F)cc2Cl)c(-c2ccc(OC(F)(F)F)cc2)o1 [Example 406, 4-(4-(5-chloro-3-(trifluoromethyl)-1H-pyrazol-1-yl)-3′-(methylsulfonyl)biphenyl-3-yl)-2-methyl-5-(4-(trifluoromethoxy)phenyl)oxazole]
  EC50: 0.143 µM
  Emax: 63%

## COc1ncc(-c2oc(C)nc2-c2cc(-c3cccc(S(C)(=O)=O)c3)ccc2-n2ccc(C(F)(F)F)n2)cc1F [Example 407, 5-(5-fluoro-6-methoxypyridin-3-yl)-2-methyl-4-(3′-(methylsulfonyl)-4-(3-(trifluoromethyl)-1H-pyrazol-1-yl)biphenyl-3-yl)oxazole]
  EC50: 0.067 µM
  Emax: 91%

## COc1ncc(-c2oc(C)nc2-c2cc(-c3cc(F)c(CO)c(S(C)(=O)=O)c3)ccc2-n2ccc(C(F)(F)F)n2)cc1F [Example 408, (3-fluoro-3′-(5-(5-fluoro-6-methoxypyridin-3-yl)-2-methyloxazol-4-yl)-5-(methylsulfonyl)-4′-(3-(trifluoromethyl)-1H-pyrazol-1-yl)biphenyl-4-yl)methanol]
  EC50: 0.018 µM
  Emax: 73%

## Cc1nc(-c2cc(-c3cccc(S(C)(=O)=O)c3)ccc2-n2ccc(C(F)(F)F)n2)c(-c2cc(F)c(OC(F)F)c(F)c2)o1 [Example 409, 5-(4-(difluoromethoxy)-3,5-difluorophenyl)-2-methyl-4-(3′-(methylsulfonyl)-4-(3-(trifluoromethyl)-1H-pyrazol-1-yl)biphenyl-3-yl)oxazole]
  EC50: 0.045 µM
  Emax: 69%

## Cc1nc(-c2cc(-c3cc(F)c(CO)c(S(C)(=O)=O)c3)ccc2-n2ccc(C(F)(F)F)n2)c(-c2cc(F)c(OC(F)F)c(F)c2)o1 [Example 410, (3′-(5-(4-(difluoromethoxy)-3,5-difluorophenyl)-2-methyloxazol-4-yl)-3-fluoro-5-(methylsulfonyl)-4′-(3-(trifluoromethyl)-1H-pyrazol-1-yl)biphenyl-4-yl)methanol]
  EC50: 0.02 µM
  Emax: 82%

## Cc1nc(-c2cc(-c3cc(F)c(CO)c(S(C)(=O)=O)c3)ccc2-n2nc(C(F)(F)F)cc2Cl)c(-c2ccc3c(c2)OC(F)(F)O3)o1 [Example 411, (4′-(5-chloro-3-(trifluoromethyl)-1H-pyrazol-1-yl)-3′-(5-(2,2-difluorobenzo[d][1,3]dioxol-5-yl)-2-methyloxazol-4-yl)-3-fluoro-5-(methylsulfonyl)biphenyl-4-yl)methanol]
  EC50: 0.019 µM
  Emax: 90%

## Cc1nc(-c2cc(-c3cccc(S(C)(=O)=O)c3)ccc2-n2nc(C(F)(F)F)cc2Cl)c(-c2ccc3c(c2)OC(F)(F)O3)o1 [Example 412, 4-(4-(5-chloro-3-(trifluoromethyl)-1H-pyrazol-1-yl)-3′-(methylsulfonyl)biphenyl-3-yl)-5-(2,2-difluorobenzo[d][1,3]dioxol-5-yl)-2-methyloxazole]
  EC50: 0.029 µM
  Emax: 93%

## Cc1nc(-c2cc(-c3cc(F)c(CO)c(S(C)(=O)=O)c3)ccc2-n2ccc(C(F)(F)F)n2)c(-c2ccc(OC(F)(F)F)cc2)o1 [Example 413, (3-fluoro-3′-(2-methyl-5-(4-(trifluoromethoxy)phenyl)oxazol-4-yl)-5-(methylsulfonyl)-4′-(3-(trifluoromethyl)-1H-pyrazol-1-yl)biphenyl-4-yl)methanol]
  EC50: 0.052 µM
  Emax: 73%

## Cc1nc(-c2cc(-c3cccc(S(C)(=O)=O)c3)ccc2-n2ccc(C(F)(F)F)n2)c(-c2ccc(OC(F)(F)F)cc2)o1 [Example 414, 2-methyl-4-(3′-(methylsulfonyl)-4-(3-(trifluoromethyl)-1H-pyrazol-1-yl)biphenyl-3-yl)-5-(4-(trifluoromethoxy)phenyl)oxazole]
  EC50: 0.092 µM
  Emax: 80%

## Cc1nc(-c2cc(-c3cc(F)c(CO)c(S(C)(=O)=O)c3)ccc2-n2nc(C(F)(F)F)cc2C2CC2)c(-c2ccc(OC(F)(F)F)cc2)o1 [Example 415, (4′-(5-cyclopropyl-3-(trifluoromethyl)-1H-pyrazol-1-yl)-3-fluoro-3′-(2-methyl-5-(4-(trifluoromethoxy)phenyl)oxazol-4-yl)-5-(methylsulfonyl)biphenyl-4-yl)methanol]
  EC50: 0.458 µM
  Emax: 37%

## Cc1nc(-c2cc(-c3cccc(S(C)(=O)=O)c3)ccc2-n2ccc(C(N)=O)n2)c(-c2ccc(OC(F)(F)F)cc2)o1 [Example 416]
  EC50: 3.05 µM
  Emax: 27%

## Cc1nc(-c2cc(-c3cccc(S(C)(=O)=O)c3)ccc2-n2ccc(C(C)(C)O)n2)c(-c2ccc(OC(F)(F)F)cc2)o1 [Example 417, 2-(1-(3-(2-methyl-5-(4-(trifluoromethoxy)phenyl)oxazol-4-yl)-3′-(methylsulfonyl)-[1,1′-biphenyl]-4-yl)-1H-pyrazol-3-yl)propan-2-ol]
  EC50: 1.01 µM
  Emax: 16%

## Cc1nc(-c2cc(-c3cccc(C4(C(N)=O)CC4)c3)ccc2-n2nc(C(F)(F)F)cc2Cl)c(-c2ccc(OC(F)(F)F)cc2)o1 [Example 418, 1-(4′-(5-chloro-3-(trifluoromethyl)-1H-pyrazol-1-yl)-3′-(2-methyl-5-(4-(trifluoromethoxy)phenyl)oxazol-4-yl)-[1,1′-biphenyl]-3-yl) cyclopropanecarboxamide]
  EC50: 0.728 µM
  Emax: 74%

## Cc1nc(-c2ccc3c(c2)OC(F)(F)O3)c(-c2cc(-c3cccc(S(C)(=O)=O)c3)ccc2-n2cc(Cl)c(C(F)(F)F)n2)o1 [Example 419, 5-(4-(4-chloro-3-(trifluoromethyl)-1H-pyrazol-1-yl)-3′-(methylsulfonyl)-[1,1′-biphenyl]-3-yl)-4-(2,2-difluorobenzo[d][1,3]dioxol-5-yl)-2-methyloxazole]
  EC50: 0.004 µM
  Emax: 71%
